{"source": "patent US7507425B2", "about": "“Method for the treatment of cachexia” (The Quigley Corporation, priority 2005, dated 2009)", "origin": "cited, not measured here", "test_system": "nitric oxide synthase (NOS)", "conditions": "Northern-blot and immunoblotting; macrophages activated with vs without curcumin"}
{"smiles": "COc1cc(/C=C/C(=O)CC(=O)/C=C/c2ccc(O)c(OC)c2)ccc1O", "note": "[curcumin]", "values": [{"measurement": "levels of mRNA and 130-k Da protein of inducible NOS", "value": "significantly reduced levels"}]}
